Measurements: patent publication US20250320462A1, “METHODS AND APPARATUSES FOR TESTING HEPATOCYTE TOXICITY USING MICROORGANOSPHERES” (XILIS, INC., priority 2022, published 2025)
Like-named read-outs stand apart in the source and are kept apart here.

How the values were obtained:
mouse liver MOSs = test: Toxicity assay using mouse liver MOSs; type: cell-based; settings: 10 mM
human liver MOSs = test: Toxicity assay using human liver MOSs; type: cell-based; settings: 10 mM
Text: Similarly, FIGS. 34A-34B also show toxicity assays using human liver MOSs.

3D Hepatocyte Spheroid = settings: values above 199 show no toxicity; read-out: 3D Hepatocyte Spheroid pIC50 (converted); cited from earlier work
HepG2 = settings: values above 199 show no toxicity; read-out: Typical 2D HepG2 Monolayer Cell Health IC50; cited from earlier work
HepatoMOS (PHHs) = test: HepatoMOS-based DILI assay (CTG viability, live/dead staining); type: cell-based, human; settings: for sensitivity of HepatoMOS-based versus spheroid-based DILI assay: indicated by lower IC50 values and large safety margins; for IC50: Homo sapiens
Experimental: Frozen human hepatocytes from Lonza were plated at 30,000 cells per well and allowed to establish in plating media. On day 2 plating media was removed and replaced with maintenance media and cultured for 1 day. On the third day, media was replaced with treatment media and the cells were treated for 72 hours. Prior to harvest HepatoMOSs were treated with CTG reagent to monitor viability.
100 cells/droplet was used in this experiment, the cell viabilities were determined by Celltiter Glo 3D.
(§1) Cell viability assay: The cell viabilities of PHHs in 2D monolayer culture or HepatoMOS culture were measured by CellTiter-Glo® 3D Cell Viability Assay (Promega). For the HepatoMOS viability measurement, we also applied the combination of Calcein AM and EtH staining in addition to CTG assay as previously reported.
(§2) DILI assessment in 2D PHHs and HepatoMOS: For the DILI assessment in the 2D monolayer of PHH cultures, PHHs were seeded at the cell density of 20,000 live cells/well in the collagen-coated 96-well plates. After 24h of culturing, the PHHs were exposed to DILI compounds at different concentrations. The cell viabilities of PHHs were then measured by using CTG assay and the DILI effects were assessed by the changes of CTG reading. For the DILI assessment in HepatoMOS culture, the HepatoMOS were encapsulated at 100 cells/droplet and cultured at HCM or InSphero media for 4 days. Then the HepatoMOS were dispensed into 96 well plates and followed by the drug treatment.

traditional cell line = test: Traditional cell line drug screen; type: cell-based; settings: all dose ranges examined
Text: As mentioned above, the MOSs and methods of using them to screen for drug compositions may be used to accurately predict the response of a patient tumor to one or more drug therapies. […] For example, in FIG. 22A-22D, the MOSs, but not a cell line, was able to correlate with patient response.

tumor MOSs = test: Drug screen on MOSs generated from a patient tumor biopsy; type: cell-based
Experimental: (§3) In a similar set of experiments, MOSs were generated from biopsy material (FIG. 23A), and a drug effect screen was performed using the resulting MOSs. […] Thus, the MOSs correlated strongly with patient response to the standard of care drugs. In this case, the patient endured six months of side effects and toxicities that may have been avoided by the predicted response from the MOSs, indicating (within 7-10 days from the biopsy) that the tumor would not respond to these drugs.
In this example, a drug screen using the Patient-Derived MOSs was run by dosing a plurality of replicates for each of a plurality of (27) drugs. A single tumor biopsy was used to generate a plurality of MOSs in large quantities extremely fast (e.g., within less than two weeks) and these MOSs were tested against the panel of drug formulations (e.g., 27 formulations are shown). This testing was done in parallel and could be automatically quantified (e.g., by optical detection and quantification).

tumor = test: Actual patient tumor response to treatment; settings: in vivo
Experimental: as §3

[1] = system: 2D monolayer of PHH cultures; test: 2D-based DILI assay; type: cell-based, human
Experimental: as §1, §2

spheroid PHHs = test: Spheroid-based DILI assay; type: cell-based, human
Experimental: Culture of PHHs and HepatoMOS generation: The pooled donors and the individual donor of PHHs were purchased from BioIVT (www.bioivt.com). The PHHs used to compare the DILI predictivities of the spheroid method vs. HepatoMOS methods were accompanied with the InSphero Kit. Four different serum-free media options (InSphero, HCM™ Hepatocyte Culture Medium BulletKit™, BioIVT INVITROGRO HI Medium, and William E) were selected for the initial HepatoMOS culture in this study. PHHs were cultured either as a 2D monolayer on collagen-coated 96-well plates or encapsulated in MOS to create HepatoMOS at different cell densities. For the comparison of HepatoMOS with the dome culture methods, matched cell densities used for the dome and making HepatoMOS were used.
Given the high fidelity of cell viability, maintenance, and hepatic-specific function preservation in HepatoMOS culture, the potential application in predicting DILI effects during drug development was evaluated. The sensitivities and specificities of HepatoMOS were compared with two widely used approaches for DILI detection: i) 2D culture; and ii) spheroid PHHs.

[2] = combined with immunotherapies; cited from earlier work

CC(=O)Nc1ccc(O)cc1 [acetaminophen]
tissue in mouse liver MOSs versus control (mouse liver MOSs): smaller and contains many dead cells | tissue in human liver MOSs versus control (human liver MOSs): significant increase atypical tissue structures (arrows) and debris

COc1ccccc1Oc1c(NS(=O)(=O)c2ccc(C(C)(C)C)cc2)nc(-c2ncccn2)nc1OCCO [Bosentan]
IC50 (3D Hepatocyte Spheroid): 166 µM | IC50 (HepG2): > 200 µM

Cc1c(C)c2c(c(C)c1O)CCC(C)(COc1ccc(CC3SC(=O)NC3=O)cc1)O2 (centres unmarked) [Troglitazone]
sensitivity of HepatoMOS-based versus spheroid-based DILI assay (HepatoMOS (PHHs)): better sensitivities

CS(=O)(=O)CCNCc1ccc(-c2ccc3ncnc(Nc4ccc(OCc5cccc(F)c5)c(Cl)c4)c3c2)o1 [Lapatinib]
IC50 (3D Hepatocyte Spheroid): 1.32 µM | IC50 (HepG2): > 200 µM

O=C1[O][Pt]2([NH][C@@H]3CCCC[C@H]3[NH]2)[O]C1=O [Oxaliplatin]
effect on traditional cell line (traditional cell line): no effect | cell survival of tumor MOSs (tumor MOSs; listed as Oxalipalatin): no change in the percent survival | cell survival of tumor MOSs (tumor MOSs; listed as Oxalipalitin): significant decreases in cell survival | patient tumor response to treatment (tumor; listed as Oxalipalatin): no response | patient tumor response to treatment (tumor; listed as Oxalipalitin): responded to treatment

O=c1[nH]c(=O)n([C@@H]2O[C@H](CO)[C@@H](O)[C@@H]2F)cc1I [Fialuridine]
IC50 (3D Hepatocyte Spheroid): 1.32 µM | IC50 (HepG2): > 200 µM

CCc1c2c(nc3ccc(OC(=O)N4CCC(N5CCCCC5)CC4)cc13)-c1cc3c(c(=O)n1C2)COC(=O)[C@]3(O)CC [Irinotecan]
cell survival of tumor MOSs (tumor MOSs): lack of effect | patient tumor response to treatment (tumor): no response

O=C(O)Cc1ccccc1Nc1c(Cl)cccc1Cl [Diclofenac]
IC50 (3D Hepatocyte Spheroid): 66.1 µM | IC50 (HepG2): > 200 µM

Cc1ccc(C(=O)c2cc(O)c(O)c([N+](=O)[O-])c2)cc1 [Tolcapone]
sensitivity of HepatoMOS-based versus spheroid-based DILI assay (HepatoMOS (PHHs)): better sensitivities | IC50 (3D Hepatocyte Spheroid): 9.99 µM | IC50 (HepG2): 91.2 µM

C=CC(=O)N1CCN(c2nc(=O)n(-c3c(C)ccnc3C(C)C)c3nc(-c4c(O)cccc4F)c(F)cc23)[C@@H](C)C1 [AMG-510]
IC50 (HepatoMOS (PHHs); 10 donor batch): < 10 µM | IC50 (HepatoMOS (PHHs); single donor): < 3.7 µM | DILI concern in 2D-based DILI assay [1]: failed to capture any DILI concern | DILI concern in spheroid-based DILI assay (spheroid PHHs): failed to capture any DILI concern | liver side effects in Phase 1 clinical trial [2]: higher incidence of severe liver side effects
